Results published in paper PMC4865847, “Putative histidine kinase inhibitors with antibacterial effect against multi-drug resistant clinical isolates identified by in vitro and in silico screens” (Scientific Reports, 2016).
Values after ≈ are worked out from the molar mass of the structure shown. Values joined by “and” are separate entries in the source; they are usually repeats but may differ in a detail not shown here. Equal values may be shown once. Read-outs that look alike come from different tables or passages of the source. Marks after values point to notes of the source that are not given here.

Tests used:
[1] = tested on: Stenotrophomonas maltophilia; experiment: Antibacterial susceptibility testing (MIC), S. maltophilia; assay type: cell-based
Protocol: (§1) Bacterial strains used in this study for antibacterial susceptibility testing (Table S5) were propagated using standard microbiological procedures. Minimal inhibitory concentrations (MICs) were determined following a standard double-dilution method. MICs were recorded as the lowest concentration of the compound where no visible growth was observed. After plating the dilutions around the MIC or growing them in fresh MH media, minimal bactericidal concentration (MBC) was recorded as the lowest concentration of the compound at which no colonies were formed or no growth was observed, respectively. For S. pneumoniae MICs were determined by adapting the standard double-dilution method to anaerobic conditions and of this microorganism (use of Todd Hewitt Yeast extract with 200 U/mL of catalase and continuous monitoring of growth).

[2] = tested on: Staphylococcus epidermidis; experiment: Antibacterial susceptibility testing (MIC/MBC), S. epidermidis; assay type: cell-based
Protocol: (§2) Minimal inhibitory concentrations (MICs) were determined following a standard double-dilution method. […] For S. pneumoniae MICs were determined by adapting the standard double-dilution method to anaerobic conditions and of this microorganism (use of Todd Hewitt Yeast extract with 200 U/mL of catalase and continuous monitoring of growth).

S. aureus PhoR (PhoR^S) = S. aureus PhoR (PhoR^S) (Staphylococcus aureus, UniProt Q2FXN7); experiment: In vitro autophosphorylation kinase assay with γ-32P-ATP, PhoR^S; assay type: biochemical; settings: for inhibition at 2000 µM: read-out: inhibition of PhoR^S autophosphorylation
Summary of the method: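 ≈4 μM HK incubated with up to 20 mM fragment in 50 mM Tris HCl pH 8.5, 50 mM KCl, 5 mM MgCl2, 0.5 mM EDTA, 0.1 mM DTT; started with γ-32P-ATP (0.03–0.06 μM ATP final). Quenched with SDS sample buffer/EDTA, run on SDS-PAGE unheated, phosphoprotein quantified by phosphor-imaging.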

Streptococcus pneumoniae = experiment: Antibacterial susceptibility testing (MIC), S. pneumoniae; assay type: cell-based; settings: strain 49619
Protocol: as §1

[3] = Solubility in kinase buffer; assay type: physicochemical; settings: kinase buffer with 10% DMSO, pH 8.5, aqueous with cosolvent or surfactant or cyclodextrin, kinetic from dmso stock; kinase buffer in the presence of 10% DMSO; read-out: concentration above which not soluble / reduced solubility in kinase buffer
Pseudomonas aeruginosa = experiment: Antibacterial susceptibility testing (MIC), P. aeruginosa; assay type: cell-based; settings: strain ATCC 27853; for MIC: Pseudomonas aeruginosa, ATCC27853
Protocol: as §1

Acinetobacter baumannii = experiment: Antibacterial susceptibility testing (MIC), A. baumannii; assay type: cell-based
Protocol: as §1

Streptococcus suis = experiment: Antibacterial susceptibility testing (MIC), S. suis; assay type: cell-based; settings: Streptococcus suis, read-out: MIC Streptococcus suis 3881/S10, strain 3881/S10
Protocol: as §1

Hemolysis assay = assay type: cell-based; settings: human
Protocol: Hemolytic activity against human erythrocytes taken from a healthy donor was measured as previously described. The hemolysis experiments were carried out in accordance with the guidelines of the United Arab Emirates University (UAEU) Research Ethics Review Board. All experimental protocols were approved by the Research Ethics Review Board of UAEU and informed consent was obtained from all donors.

Escherichia coli = experiment: Antibacterial susceptibility testing (MIC/MBC), E. coli; assay type: cell-based; settings: Escherichia coli
Protocol: as §2

E. coli PhoR (PhoR^E) = molecular target: T1, E. coli PhoR (PhoR^E) (Escherichia coli, UniProt P08400); experiment: Aggregation analysis by native-PAGE, PhoR^E; settings: 2 mM (S5 and S6 5 mM), 10% DMSO
T1 construct: The catalytic portion (DHp and CA domain) of E. coli PhoR (PhoR^E); made in house; host or cells: E. coli RIL
Protocol: E. coli PhoR and EnvZ, and S. aureus PhoR ([…], final concentration) were prepared in kinase buffer. […] DMSO in the assays was maintained to a final concentration 10% (v/v). After 30 min of incubation at room temperature Native polyacrylamide gel electrophoresis (Native-PAGE) loading buffer was added and samples loaded. Coomassie blue staining was used for protein visualization.

Staphylococcus aureus = experiment: Antibacterial susceptibility testing (MIC/MBC), S. aureus; assay type: cell-based; settings: for MIC S. aureus DSM 20231 / bacteriostatic or bactericidal for S. aureus DSM 20231: strain DSM 20231
Protocol: as §2

[4] = clinical isolate B5/5, read-out: MIC S. maltophilia B5/5
[5] = clinical isolate B6/2, read-out: MIC S. maltophilia B6/2
[6] = clinical isolate B32/1, read-out: MIC S. maltophilia B32/1
[7] = Staphylococcus epidermidis, DSM20044, strain DSM 20044, read-out: MIC S. epidermidis DSM 20044
[8] = Staphylococcus epidermidis, clinical isolate T7/3, read-out: MIC S. epidermidis T7/3
[9] = Staphylococcus epidermidis, clinical isolate T37/8, read-out: MIC S. epidermidis T37/8
[10] = Staphylococcus epidermidis, clinical isolate T6119, read-out: MIC S. epidermidis T6119
[11] = Staphylococcus epidermidis, strain RP62A (biofilm producer), read-out: MIC S. epidermidis RP62A
[12] = Staphylococcus epidermidis, strain RP62A/1 (non-biofilm producer), read-out: MIC S. epidermidis RP62A/1
[13] = MDR clinical isolate NM8, read-out: MIC A. baumannii NM8
[14] = MDR clinical isolate NM35, read-out: MIC A. baumannii NM35
[15] = MDR clinical isolate NM75, read-out: MIC A. baumannii NM75
[16] = MDR clinical isolate NM109, read-out: MIC A. baumannii NM109
[17] = MDR clinical isolate NM124, read-out: MIC A. baumannii NM124
[18] = ATCC25276, strain ATCC 25276, read-out: MIC E. coli ATCC 25276
[19] = strain CFT 073, read-out: MIC E. coli CFT 073
[20] = Staphylococcus aureus, ATCC reference strain 25293, read-out: MIC S. aureus 25293
[21] = Staphylococcus aureus, DSM20231, strain DSM 20231, read-out: MIC S. aureus DSM 20231
[22] = Staphylococcus aureus, MRSA clinical isolate 127/08, read-out: MIC S. aureus 127/08
[23] = Staphylococcus aureus, MRSA clinical isolate 145/08, read-out: MIC S. aureus 145/08
[24] = Staphylococcus aureus, MRSA clinical isolate 274/08, read-out: MIC S. aureus 274/08
[25] = Staphylococcus aureus, MRSA, MRSA clinical isolate S908, read-out: MIC S. aureus S908
[26] = Staphylococcus aureus, MRSA, MRSA clinical isolate T4/6, read-out: MIC S. aureus T4/6
[27] = Staphylococcus aureus, MRSA, MRSA clinical isolate V4180, read-out: MIC S. aureus V4180
[28] = Staphylococcus aureus, MRSA, summary over susceptible MRSA clinical isolates, read-out: MICs for MRSA strains

Chain of S. aureus PhoR (PhoR^S) (Q2FXN7 entry or part of it): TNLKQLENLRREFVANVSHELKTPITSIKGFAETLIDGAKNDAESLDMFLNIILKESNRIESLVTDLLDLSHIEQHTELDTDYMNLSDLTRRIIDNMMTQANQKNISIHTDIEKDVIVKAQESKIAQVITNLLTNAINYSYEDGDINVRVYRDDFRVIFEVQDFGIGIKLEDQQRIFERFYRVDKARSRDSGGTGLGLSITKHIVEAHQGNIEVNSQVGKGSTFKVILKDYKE
T1 sequence (P08400 210-425): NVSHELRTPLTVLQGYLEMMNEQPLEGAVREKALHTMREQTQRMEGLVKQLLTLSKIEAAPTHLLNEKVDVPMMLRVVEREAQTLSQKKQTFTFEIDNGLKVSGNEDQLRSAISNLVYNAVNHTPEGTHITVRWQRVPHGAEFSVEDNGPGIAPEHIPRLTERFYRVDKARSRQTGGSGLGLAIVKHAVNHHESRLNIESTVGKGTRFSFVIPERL

CC(=O)Nc1cccc(-c2ccccc2Cl)c1 [S1.7, N-[3-(2-chlorophenyl)phenyl]acetamide]
MIC [1, 4]: > 500 µg/mL
MIC [1, 5]: > 500 µg/mL
MIC [1, 6]: > 500 µg/mL
MIC [2, 7]: > 500 µg/mL
MIC [2, 8]: > 500 µg/mL
MIC [2, 9]: > 500 µg/mL
MIC [2, 10]: > 500 µg/mL
MIC [2, 11]: > 500 µg/mL
MIC [2, 12]: > 500 µg/mL
IC50 (S. aureus PhoR (PhoR^S); IC50 PhoR^S, autophosphorylation, one time point (30 sec), 10% DMSO): 1 mM and ~1 mM
inhibition at 2000 µM (S. aureus PhoR (PhoR^S)): > 75%
MIC (Streptococcus pneumoniae): 128 µg/mL (≈ 521 µM)
solubility [3]: ≤ 1000 µM
MIC (Pseudomonas aeruginosa): > 500 µg/mL
MIC P. aeruginosa ATCC 27853 (Pseudomonas aeruginosa): >500 µg/mL
MIC (Acinetobacter baumannii; [13]): > 500 µg/mL
MIC (Acinetobacter baumannii; [14]): > 500 µg/mL
MIC (Acinetobacter baumannii; [15]): > 500 µg/mL
MIC (Acinetobacter baumannii; [16]): > 500 µg/mL
MIC (Acinetobacter baumannii; [17]): > 500 µg/mL
MIC (Streptococcus suis): > 500 µg/mL
HC50 (Hemolysis assay): > 500 µg/mL
MIC (Escherichia coli; [18]): > 500 µg/mL
MIC (Escherichia coli; [19]): > 500 µg/mL
HK aggregation, PhoR^E (E. coli PhoR (PhoR^E)): do not cause HK aggregation
MIC (Staphylococcus aureus; [20]): 125 µg/mL (≈ 509 µM)
MIC (Staphylococcus aureus; [21]): 250 µg/mL (≈ 1020 µM)
MIC (Staphylococcus aureus; [22]): > 500 µg/mL
MIC (Staphylococcus aureus; [23]): > 500 µg/mL
MIC (Staphylococcus aureus; [24]): 250 µg/mL (≈ 1020 µM)
MIC (Staphylococcus aureus; [25]): > 500 µg/mL
MIC (Staphylococcus aureus; [26]): 250 µg/mL (≈ 1020 µM)
MIC (Staphylococcus aureus; [27]): > 500 µg/mL
MIC (Staphylococcus aureus; [28]): ≥ 250 µg/mL
MIC S. aureus DSM 20231 (Staphylococcus aureus): 250^# μg/ml
bacteriostatic or bactericidal for S. aureus DSM 20231 (Staphylococcus aureus): bacteriostatic

CC(C)(C)c1ccc(O)c(CNc2ccccc2)c1 [S1.14, 4-tert-butyl-2-[(phenylamino)methyl]phenol]
MIC [1, 4]: 500 µg/mL (≈ 1960 µM)
MIC [1, 5]: 500 µg/mL (≈ 1960 µM)
MIC [1, 6]: 500 µg/mL (≈ 1960 µM)
MIC ([1]; summary over strains, read-out: MICs for S. maltophilia strains): 250 to 500 µg/mL (≈ 979 to 1960 µM)
MBC ([2]; Staphylococcus epidermidis, DSM20044, strain DSM 20044): 500 µg/mL (≈ 1960 µM)
MIC [2, 7]: 500 µg/mL (≈ 1960 µM)
MIC [2, 8]: 250 µg/mL (≈ 979 µM)
MIC [2, 9]: 500 µg/mL (≈ 1960 µM)
MIC [2, 10]: 500 µg/mL (≈ 1960 µM)
MIC [2, 11]: > 500 µg/mL
MIC [2, 12]: 500 µg/mL (≈ 1960 µM)
MIC ([2]; Staphylococcus epidermidis, summary over strains, read-out: MICs for the S. epidermidis strains): 250 to 500 µg/mL (≈ 979 to 1960 µM)
MIC S. epidermidis DSM 20044 ([2]; strain DSM 20044): 500^¶ μg/ml
bacteriostatic or bactericidal for S. epidermidis DSM 20044 ([2]; strain DSM 20044): bactericidal
inhibition at 2000 µM (S. aureus PhoR (PhoR^S)): > 75%
MIC (Streptococcus pneumoniae): > 500 µg/mL
MIC (Pseudomonas aeruginosa): > 500 µg/mL
MIC P. aeruginosa ATCC 27853 (Pseudomonas aeruginosa): >500 µg/mL
MIC (Acinetobacter baumannii; [13]): 500 µg/mL (≈ 1960 µM)
MIC (Acinetobacter baumannii; [14]): 500 µg/mL (≈ 1960 µM)
MIC (Acinetobacter baumannii; [15]): 500 µg/mL (≈ 1960 µM)
MIC (Acinetobacter baumannii; [16]): 250 µg/mL (≈ 979 µM)
MIC (Acinetobacter baumannii; [17]): 250 µg/mL (≈ 979 µM)
MIC (Acinetobacter baumannii; summary over strains, read-out: MICs for A. baumannii strains): 250 to 500 µg/mL (≈ 979 to 1960 µM)
MIC (Streptococcus suis): 125 µg/mL (≈ 490 µM)
HC50 (Hemolysis assay): > 500 µg/mL
MIC (Escherichia coli; [18]): > 500 µg/mL
MIC (Escherichia coli; [19]): > 500 µg/mL
HK aggregation, PhoR^E (E. coli PhoR (PhoR^E)): do not cause HK aggregation
MIC (Staphylococcus aureus; [20]): 125 µg/mL (≈ 490 µM)
MBC (Staphylococcus aureus; Staphylococcus aureus, DSM20231, strain DSM 20231, read-out: MBC S. aureus DSM 20231): 500 µg/mL (≈ 1960 µM)
MIC (Staphylococcus aureus; [21]): 500 µg/mL (≈ 1960 µM)
MIC (Staphylococcus aureus; [22]): 250 µg/mL (≈ 979 µM)
MIC (Staphylococcus aureus; [23]): 250 µg/mL (≈ 979 µM)
MIC (Staphylococcus aureus; [24]): 250 µg/mL (≈ 979 µM)
MIC (Staphylococcus aureus; [25]): 250 µg/mL (≈ 979 µM)
MIC (Staphylococcus aureus; [26]): 250 µg/mL (≈ 979 µM)
MIC (Staphylococcus aureus; [27]): 250 µg/mL (≈ 979 µM)
MIC (Staphylococcus aureus; [28]): 250 µg/mL (≈ 979 µM)
MIC S. aureus DSM 20231 (Staphylococcus aureus): 500^¶ μg/ml
bacteriostatic or bactericidal for S. aureus DSM 20231 (Staphylococcus aureus): bactericidal
